Measured values taken from PubChem BioAssay AID1963860 (Molecular Pharmacology Branch, DTP, NCI, 2024).
pIC50: −log10 of the molar value.

Test system: CN0375-F725-PDC KRAS spheroid viability
Test: Anticancer human tumor CN0375-F725-PDC patient-derived colon carcinoma cell line growth inhibition [KRAS2]
Conditions: spheroids with HUVEC and MSC; for pIC50: curve of first compound; for viability, T/C: stronger effect = lower value
Outline: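 Combination screen of spheroid viability in tumor-cell co-cultures with endothelial (HUVEC) and mesenchymal stem cell stroma. Each agent was tested in half-log dilutions, topping at clinical Cmax or at 10 microM without a known Cmax.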

[1] = second compound 0.1 µM, first compound 0.0316 µM
[2] = second compound 0.1 µM, first compound 0.1 µM
[3] = second compound 0.316 µM, first compound 0.0316 µM
[4] = second compound 0.316 µM, first compound 0.1 µM
[5] = second compound 1 µM, first compound 0.0316 µM
[6] = second compound 1 µM, first compound 0.1 µM
[7] = second compound 3.16 µM, first compound 0.0316 µM
[8] = second compound 3.16 µM, first compound 0.1 µM
[9] = second compound 10 µM, first compound 0.0316 µM
[10] = second compound 10 µM, first compound 0.1 µM
[11] = second compound 0.1 µM, first compound 0.316 µM
[12] = second compound 0.1 µM, first compound 1 µM
[13] = second compound 0.1 µM, first compound 3.16 µM
[14] = second compound 0.1 µM, first compound 10 µM
[15] = second compound 0.316 µM, first compound 0.316 µM
[16] = second compound 0.316 µM, first compound 1 µM
[17] = second compound 0.316 µM, first compound 3.16 µM
[18] = second compound 0.316 µM, first compound 10 µM
[19] = second compound 1 µM, first compound 0.316 µM
[20] = second compound 1 µM, first compound 1 µM
[21] = second compound 1 µM, first compound 3.16 µM
[22] = second compound 1 µM, first compound 10 µM
[23] = second compound 3.16 µM, first compound 0.316 µM
[24] = second compound 3.16 µM, first compound 1 µM
[25] = second compound 3.16 µM, first compound 3.16 µM
[26] = second compound 3.16 µM, first compound 10 µM
[27] = second compound 10 µM, first compound 0.316 µM
[28] = second compound 10 µM, first compound 1 µM
[29] = second compound 10 µM, first compound 3.16 µM
[30] = second compound 10 µM, first compound 10 µM
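Note: spheroids exposed to agents for 7 days.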

| SMILES | pIC50 (second compound 0.1 µM) | pIC50 (second compound 0.316 µM) | pIC50 (second compound 1 µM) | pIC50 (second compound 3.16 µM) | pIC50 (second compound 10 µM) | viability, T/C [1] | viability, T/C [2] | viability, T/C [3] | viability, T/C [4] | viability, T/C [5] | viability, T/C [6] | viability, T/C [7] | viability, T/C [8] | viability, T/C [9] | viability, T/C [10] | viability, T/C [11] | viability, T/C [12] | viability, T/C [13] | viability, T/C [14] | viability, T/C [15] | other results |
| --- | --- | --- | --- | --- | --- | --- | --- | --- | --- | --- | --- | --- | --- | --- | --- | --- | --- | --- | --- | --- | --- |
| CC(C)n1nc(-c2ccc3oc(N)nc3c2)c2c(N)ncnc21 + COc1cc2nc(C)nc(NC(C)c3cc(N)cc(C(F)(F)F)c3)c2cc1OC1CCOC1 | 7.23 | 7.31 | 7.44 | 7.59 | > 9.50 | 54.5% | 45.5% | 54.2% | 43.7% | 50.2% | 42.1% | 48.5% | 40.8% | 18.1% | 13.7% | – | – | – | – | – | viability, T/C (second compound 0.1 µM, first compound 0.000316 µM): 101%; viability, T/C (second compound 0.1 µM, first compound 0.001 µM): 93.6%; viability, T/C (second compound 0.1 µM, first compound 0.00316 µM): 78%; viability, T/C (second compound 0.1 µM, first compound 0.01 µM): 70.4%; viability, T/C (second compound 0.316 µM, first compound 0.000316 µM): 95.1%; viability, T/C (second compound 0.316 µM, first compound 0.001 µM): 89.7%; viability, T/C (second compound 0.316 µM, first compound 0.00316 µM): 77.6%; viability, T/C (second compound 0.316 µM, first compound 0.01 µM): 66%; viability, T/C (second compound 1 µM, first compound 0.000316 µM): 90.5%; viability, T/C (second compound 1 µM, first compound 0.001 µM): 88.6%; viability, T/C (second compound 1 µM, first compound 0.00316 µM): 76%; viability, T/C (second compound 1 µM, first compound 0.01 µM): 66.4%; viability, T/C (second compound 3.16 µM, first compound 0.000316 µM): 85.2%; viability, T/C (second compound 3.16 µM, first compound 0.001 µM): 80.8%; viability, T/C (second compound 3.16 µM, first compound 0.00316 µM): 72.9%; viability, T/C (second compound 3.16 µM, first compound 0.01 µM): 59%; viability, T/C (second compound 10 µM, first compound 0.000316 µM): 13.7%; viability, T/C (second compound 10 µM, first compound 0.001 µM): 14.8%; viability, T/C (second compound 10 µM, first compound 0.00316 µM): 25.4%; viability, T/C (second compound 10 µM, first compound 0.01 µM): 22% |
| COc1cc(Nc2ncc3c(n2)-c2ccc(Cl)cc2C(c2c(F)cccc2OC)=NC3)ccc1C(=O)O + COc1cc2nc(C)nc(NC(C)c3cc(N)cc(C(F)(F)F)c3)c2cc1OC1CCOC1 | < 5.00 | < 5.00 | < 5.00 | < 5.00 | > 7.50 | 95.9% | 93.2% | 97% | 97.6% | 91.7% | 95.6% | 84.8% | 88.3% | 27.6% | 15.6% | 88.8% | 88.2% | 87.3% | 71.8% | 90.5% | viability, T/C [16]: 87.8%; viability, T/C [17]: 83.1%; viability, T/C [18]: 71.8%; viability, T/C [19]: 89.8%; viability, T/C [20]: 85.1%; viability, T/C [21]: 83.9%; viability, T/C [22]: 69.4%; viability, T/C [23]: 72.7%; viability, T/C [24]: 79%; viability, T/C [25]: 75.9%; viability, T/C [26]: 64.6%; viability, T/C [27]: 13.9%; viability, T/C [28]: 15.7%; viability, T/C [29]: 15.5%; viability, T/C [30]: 7.94% |
| COc1cc2nccc(Oc3ccc(NC(=O)C4(C(=O)Nc5ccc(F)cc5)CC4)cc3)c2cc1OC + COc1cc2nc(C)nc(NC(C)c3cc(N)cc(C(F)(F)F)c3)c2cc1OC1CCOC1 | < 5.00 | 5.17 | 5.42 | 5.98 | > 7.50 | 102% | 99.5% | 100% | 96.6% | 88.4% | 91.6% | 76.2% | 81.6% | 15.8% | 4.08% | 89.8% | 79.3% | 56.6% | 59.6% | 90.2% | viability, T/C [16]: 74.8%; viability, T/C [17]: 52.6%; viability, T/C [18]: 48.7%; viability, T/C [19]: 83.8%; viability, T/C [20]: 75%; viability, T/C [21]: 50.3%; viability, T/C [22]: 44.2%; viability, T/C [23]: 70.4%; viability, T/C [24]: 52.4%; viability, T/C [25]: 16.7%; viability, T/C [26]: 9.46%; viability, T/C [27]: 7.08%; viability, T/C [28]: 16.8%; viability, T/C [29]: 0.92%; viability, T/C [30]: 0.22% |
